Here are results for 14 molecules from US20260055097A9, “NRF2 PROTEIN DEGRADERS” (Ganymede Oncology, Inc., priority 2022, published 2026).

In one test the target is T1, Nrf2 (Homo sapiens, UniProt Q16236).
T1 sequence (Q16236 1-605): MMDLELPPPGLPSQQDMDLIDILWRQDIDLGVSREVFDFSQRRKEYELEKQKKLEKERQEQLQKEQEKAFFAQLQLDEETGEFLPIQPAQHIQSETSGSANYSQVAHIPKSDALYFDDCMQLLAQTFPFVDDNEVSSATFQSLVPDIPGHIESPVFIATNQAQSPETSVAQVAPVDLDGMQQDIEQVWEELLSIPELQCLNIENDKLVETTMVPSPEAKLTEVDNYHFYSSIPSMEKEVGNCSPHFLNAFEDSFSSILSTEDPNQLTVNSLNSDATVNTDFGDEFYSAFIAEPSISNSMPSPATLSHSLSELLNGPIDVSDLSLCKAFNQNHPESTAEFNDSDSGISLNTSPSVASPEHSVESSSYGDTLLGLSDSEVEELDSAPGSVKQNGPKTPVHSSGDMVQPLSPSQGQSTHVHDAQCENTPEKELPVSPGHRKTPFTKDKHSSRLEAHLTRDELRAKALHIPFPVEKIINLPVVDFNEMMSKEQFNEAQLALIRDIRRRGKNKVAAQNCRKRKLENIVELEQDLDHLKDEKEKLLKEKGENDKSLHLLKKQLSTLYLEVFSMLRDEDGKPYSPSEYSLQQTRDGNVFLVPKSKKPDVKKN
The experiment in a line: Nrf2 degradation in A549 HiBiT-Nrf2 cells, Nano-Glo HiBiT lytic detection (HiBiT readout). In kind it is cell-based. On the set-up: host or cells: A549 HiBiT-Nrf2 cells (engineered line bought from Promega). As for the experimental part:
A549 HiBiT-Nrf2 cells (Promega, Cat. No. CS3023219) were seeded into 384-well plates at cell density of 5,000 cells/well in 40 μL of cell culture medium (Ham's F-12 Nutrient Mix supplemented with 10% FBS and 1% antibiotic-antimycotic).
The next day, cells were treated with representative Compounds of the Disclosure and incubated for 6 h and 20 h at 37° C., 5% CO2. Staurosporine was used as a control.
At the end of incubation Nrf2 degradation (HiBiT readout) and cell viability (CellTiter-Glo readout) were determined. For HiBiT readout, Nano-Glo HiBiT Reagent mix (Promega, Cat. No. N3050) was added to wells, plates were incubated 2 min on an orbital shaker and incubated at room temperature in the dark for additional 30 minutes. At the end of incubation luminescence was measured using ultrasensitive luminescence mode (Envision, Perkin Elmer).
Background: The HiBiT peptide binds its large partner to form an active luciferase.

Another test relates to A549. As to the kind of experiment: Cancer cell viability, A549 (CellTiter-Glo). In kind it is cell-based. As to conditions: Homo sapiens, 72 h, A549 cells, 3 days, read-out: Cellular IC50 (μM) A549. The method, then: Representative Compounds of the Disclosure were tested in A549 (Vendor: ATCC; Cat #CCL-185; Description: lung, carcinoma) and/or LK-2 (Vendor: Riken; Cat #RCB1970; Description: lung, squamous cell carcinoma) cellular viability assays according to the following general protocol. • 1. Observed the cells under microscope. • 2. Aspirated the media and added 5 mL trypsin and incubate for 3 mins. • 3. Added 10 mL fresh media and harvested all the cells in to 15 mL tubes. • 4. Centrifuged the cells at 1000 rpm for 5 mins. • 5. Re-suspended the cells with 11 mL media and took 1 mL to determine the cell number and viability. • 6. Prepared cells suspension at 20 K/mL (A549) or 35 K/mL (LK-2) • 7. Seeded the cells into 96-well plate and incubated for overnight. • 8. […] After 3 days, took out the plates from the incubator and observed the cells under microscope. • 10. Passed a film at the bottom of the plates. • 11. Equilibrated the plate and its contents at room temperature for approximately 30 minutes. • 12. Thawed the CellTiter-Glo® Buffer and equilibrated to room temperature prior to use. • 13. Equilibrated the lyophilized CellTiter-Glo® Substrate to room temperature prior to use. • 14. Transferred 100 ml of CellTiter-Glo® Buffer into the amber bottle containing CellTiter-Glo® Substrate to reconstituted the lyophilized enzyme/substrate mixture. • 15. Mixed by gently vortexing, swirling or inverting the contents to obtain a homogeneous solution. • 16. Added 100 μL CellTiter-Glo® Reagent into each well • 17. Mixed contents for 15 minutes on an orbital shaker to induce cell lysis. • 18. Recorded luminescence with EnSpire machine. • 19. Passed the raw data into the file and analyzed the data with XLfit software.
Background: Cellular ATP, detected with luciferase, serves as a proxy for viable cell number.

Where [1] appears, read: 6 h, read-out: DC50 (nM) at 6 h.
The mark [2] stands for this setting: 20 h, read-out: DC50 (nM) at 20 h.

Read-outs that look alike come from different tables or passages of the source.

For `Cc1sc(NC(=O)Cc2cccc(OCCC(C)CCNc3cccc4c3C(=O)N(C3CCC(=O)NC3=O)C4=O)c2)nc1-c1ccc2c(c1)CCN2C(=O)C1CC1` (stereo not drawn) [Cpd. No. 41, N-(4-(1-(cyclopropanecarbonyl)indolin-5-yl)-5-methylthiazol-2-yl)-2-(3-((5-((2-(2,6-dioxopiperidin-3-yl)-1,3-dioxoisoindolin-4-yl)amino)-3-methylpentyl)oxy)phenyl)acetamide], the half-maximal degradation concentration (DC50) on Nrf2 (setting [1]) and at Nrf2 (setting [2]) was < 300 nM in each case.
Consider `Cc1sc(NC(=O)Cc2cccc(OCCC(C)(C)CCNc3cccc4c3C(=O)N(C3CCC(=O)NC3=O)C4=O)c2)nc1-c1ccc2c(c1)CCN2C(=O)C1CC1` (stereo not drawn) [Cpd. No. 42, N-(4-(1-(cyclopropanecarbonyl)indolin-5-yl)-5-methylthiazol-2-yl)-2-(3-((5-((2-(2,6-dioxopiperidin-3-yl)-1,3-dioxoisoindolin-4-yl)amino)-3,3-dimethylpentyl)oxy)phenyl)acetamide], for which the DC50 – broadly, the midpoint of the concentration-degradation curve – at Nrf2 (setting [1]) was > 3000 nM.
As for `Cc1sc(NC(=O)Cc2cccc(OCCN(C)CCNc3cccc4c3C(=O)N(C3CCC(=O)NC3=O)C4=O)c2)nc1-c1ccc2c(c1)CCN2C(=O)C1CC1` (stereo not drawn) [Cpd. No. 44, N-(4-(1-(cyclopropanecarbonyl)indolin-5-yl)-5-methylthiazol-2-yl)-2-(3-(2-((2-((2-(2,6-dioxopiperidin-3-yl)-1,3-dioxoisoindolin-4-yl)amino)ethyl)(methyl)amino)ethoxy)phenyl)acetamide], the half-maximal degradation concentration (DC50) on Nrf2 (setting [1]) and on Nrf2 (setting [2]) was < 300 nM each time.
Turning to `Cc1sc(NC(=O)Cc2cccc(OCCC(C)CCOc3cccc4c3C(=O)N(C3CCC(=O)NC3=O)C4=O)c2)nc1-c1ccc2c(c1)CCN2C(=O)C1CC1` (stereo not drawn) [Cpd. No. 47, N-(4-(1-(cyclopropanecarbonyl)indolin-5-yl)-5-methylthiazol-2-yl)-2-(3-((5-((2-(2,6-dioxopiperidin-3-yl)-1,3-dioxoisoindolin-4-yl)oxy)-3-methylpentyl)oxy)phenyl)acetamide], the DC50 at Nrf2 (setting [1]) and on Nrf2 (setting [2]) was 300 to 3000 nM in each case.
Regarding `Cc1sc(NC(=O)Cc2cccc(OCCC(C)(C)CCOc3cccc4c3C(=O)N(C3CCC(=O)NC3=O)C4=O)c2)nc1-c1ccc2c(c1)CCN2C(=O)C1CC1` (stereo not drawn) [Cpd. No. 48, N-(4-(1-(cyclopropanecarbonyl)indolin-5-yl)-5-methylthiazol-2-yl)-2-(3-((5-((2-(2,6-dioxopiperidin-3-yl)-1,3-dioxoisoindolin-4-yl)oxy)-3,3-dimethylpentyl)oxy)phenyl)acetamide], the half-maximal degradation concentration (DC50) at Nrf2 (setting [1]) is > 3000 nM; on Nrf2 (setting [2]), 300 to 3000 nM.
Take `Cc1sc(NC(=O)Cc2cccc(OCCC(C)(C)CCNc3ccc4c(c3)C(=O)N(C3CCC(=O)NC3=O)C4=O)c2)nc1-c1ccc2c(c1)CCN2C(=O)C1CC1` (stereo not drawn) [Cpd. No. 51, N-(4-(1-(cyclopropanecarbonyl)indolin-5-yl)-5-methylthiazol-2-yl)-2-(3-((5-((2-(2,6-dioxopiperidin-3-yl)-1,3-dioxoisoindolin-5-yl)amino)-3,3-dimethylpentyl)oxy)phenyl)acetamide]: the DC50 on Nrf2 (setting [1]) and at Nrf2 (setting [2]) was < 300 nM each time.
Consider `Cc1sc(NC(=O)Cc2cccc(OCCCCNc3cccc4c3C(=O)N(C3CCC(=O)NC3=O)C4=O)c2)nc1-c1ccc2c(c1)CCN2C(=O)C1CC1` (stereo not drawn) [Cpd. No. 65, N-(4-(1-(cyclopropanecarbonyl)indolin-5-yl)-5-methylthiazol-2-yl)-2-(3-(4-((2-(2,6-dioxopiperidin-3-yl)-1,3-dioxoisoindolin-4-yl)amino)butoxy)phenyl)acetamide], for which the concentration for half-maximal inhibition (IC50) (in general, the concentration that gives 50% inhibition) in the test with A549 was 0.12 µM. Besides, the 50% degradation concentration (DC50) at Nrf2 (setting [1]) and at Nrf2 (setting [2]) was < 300 nM each time.
Regarding `Cc1sc(NC(=O)Cc2cccc(OCCCCCCNc3cccc4c3C(=O)N(C3CCC(=O)NC3=O)C4=O)c2)nc1-c1ccc2c(c1)CCN2C(=O)C1CC1` (stereo not drawn) [Cpd. No. 66, N-(4-(1-(cyclopropanecarbonyl)indolin-5-yl)-5-methylthiazol-2-yl)-2-(3-((6-((2-(2,6-dioxopiperidin-3-yl)-1,3-dioxoisoindolin-4-yl)amino)hexyl)oxy)phenyl)acetamide], the half-maximal inhibitory concentration (IC50) with A549 is 0.16 µM. Besides, the values for the DC50 at Nrf2 (setting [1]) and at Nrf2 (setting [2]) were 300 to 3000 nM and < 300 nM, respectively.
As for `Cc1sc(NC(=O)Cc2cccc(OCCOCCNc3cccc4c3C(=O)N(C3CCC(=O)NC3=O)C4)c2)nc1-c1ccc2c(c1)CCN2C(=O)C1CC1` (stereo not drawn) [Cpd. No. 81, N-(4-(1-(cyclopropanecarbonyl)indolin-5-yl)-5-methylthiazol-2-yl)-2-(3-(2-(2-((2-(2,6-dioxopiperidin-3-yl)-3-oxoisoindolin-4-yl)amino)ethoxy)ethoxy)phenyl) acetamide], the IC50 with A549 is > 30 µM.
Take `Cc1sc(NC(=O)Cc2cccc(OCCC(C)CCNc3ccc4c(c3)C(=O)N(C3CCC(=O)NC3=O)C4=O)c2)nc1-c1ccc2c(c1)CCN2C(=O)C1CC1` (stereo not drawn) [compound 50, N-(4-(1-(cyclopropanecarbonyl)indolin-5-yl)-5-methylthiazol-2-yl)-2-(3-((5-((2-(2,6-dioxopiperidin-3-yl)-1,3-dioxoisoindolin-5-yl)amino)-3-methylpentyl)oxy)phenyl)acetamide]: the DC50 at Nrf2 (setting [1]) and at Nrf2 (setting [2]) was 300 to 3000 nM in each case.
Turning to `Cc1ncccc1C(=O)N1CCc2cc(-c3nc(NC(=O)Cc4cccc(OCCCCCNc5cccc6c5C(=O)N(C5CCC(=O)NC5=O)C6=O)c4)sc3C)ccc21` (stereo not drawn) [compound 83, 2-(3-((5-((2-(2,6-dioxopiperidin-3-yl)-1,3-dioxoisoindolin-4-yl)amino)pentyl)oxy)phenyl)-N-(5-methyl-4-(1-(2-methylnicotinoyl)indolin-5-yl)thiazol-2-yl)acetamide], the IC50 in the test on A549 is 0.045 µM.
For `Cc1cnccc1C(=O)N1CCc2cc(-c3nc(NC(=O)Cc4cccc(OCCCCCNc5cccc6c5C(=O)N(C5CCC(=O)NC5=O)C6=O)c4)sc3C)ccc21` (stereo not drawn) [compound 84, 2-(3-((5-((2-(2,6-dioxopiperidin-3-yl)-1,3-dioxoisoindolin-4-yl)amino)pentyl)oxy)phenyl)-N-(5-methyl-4-(1-(3-methylisonicotinoyl)indolin-5-yl)thiazol-2-yl)acetamide], the IC50 in the test on A549 turned out to be 0.046 µM.
On the same count and under the same terms, then `Cc1ccncc1C(=O)N1CCc2cc(-c3nc(NC(=O)Cc4cccc(OCCCCCNc5cccc6c5C(=O)N(C5CCC(=O)NC5=O)C6=O)c4)sc3C)ccc21` (stereo not drawn) [compound 85, 2-(3-((5-((2-(2,6-dioxopiperidin-3-yl)-1,3-dioxoisoindolin-4-yl)amino)pentyl)oxy)phenyl)-N-(5-methyl-4-(1-(4-methylnicotinoyl)indolin-5-yl)thiazol-2-yl)acetamide], with 0.047 µM.
On the same count and under the same terms, then `Cc1cccnc1C(=O)N1CCc2cc(-c3nc(NC(=O)Cc4cccc(OCCCCCNc5cccc6c5C(=O)N(C5CCC(=O)NC5=O)C6=O)c4)sc3C)ccc21` (stereo not drawn) [compound 86, 2-(3-((5-((2-(2,6-dioxopiperidin-3-yl)-1,3-dioxoisoindolin-4-yl)amino)pentyl)oxy)phenyl)-N-(5-methyl-4-(1-(3-methylpicolinoyl)indolin-5-yl)thiazol-2-yl)acetamide], with 0.072 µM.
